# Several values for one entry are separate records, joined by “and”; a condition that tells them apart may be missing. Identical values can stand only once. Counter-ions that a name gives are not always drawn.
# What was measured:
# [1] = tested on: norepinephrine (H^3 NE) uptake into the rat heart; test: Blockade of tritium-labeled norepinephrine (H^3 NE) uptake into the rat heart in vivo; conditions: 32 μmoles/kg. (8.8 mg./kg.) i.p. 20 minutes before i.v. dl-H^3 NE, each entry a mean from a separate experiment
# Protocol: The 1-amino-4-phenyltetralin final products of Examples IV-V and VIII-IX were tested for antidepressant activity by measuring their ability to block tritium-labeled norepinephrine (H^3 NE) uptake into the rat heart in vivo. For these particular studies, rats in groups of five were pretreated with the control vehicle or the drug to be administered at 32 μmoles/kg. (8.8 mg./kg.), via the intraperitoneal route, followed 20 minutes later by intravenous injection of dl-H^3 NE (having a specific activity of 9.5 c/mmole) at a dose level of 5 μc/kg. The rats were then sacrificed one hour ater administration of said agent (H^3 NE), and the norepinephrine (NE) content present in the heart was subsequently isolated therefrom by means of extraction with alumina, followed by repeated elution of said alumina extracts with 0.05N aqueous hydrochloric acid. The specific activity (cpm/μg.) of H^3 NE in the heart was then determined by measuring the amount of radioactivity (using a liquid scintillation counter) and the NE content (fluorimetrically via an Auto-Analyzer of the type manufactured by the Technicon Instruments Corporation of Chauncey, N.Y.) of the aforesaid aqueous eluates. The results obtained in this manner are presented below in the following table, where the individual entries are each made from a separate experiment and constitute mean relative specific activities expressed in terms of percent control: […]
# [2] = tested on: reserpine-induced hypothermia in the mouse; test: Reversal of reserpine-induced hypothermia in the mouse; assay type: in vivo; conditions: 32 mg./kg. i.p., 2 hours after dosing; reserpine 2 mg./kg. s.c. 18 hours before; saline control 25.1° ± 3.2° C.
# Protocol: The 1-amino-4-phenyltetraline final products of Examples III-IX were tested for antidepressant activity by measuring their ability to reverse reserpine-induced hypothermia in the mouse according to the procedure described by B.M. Askew in Life Science, Vol. 2, p. 725 (1963). In this test, all the animals were individually housed in plastic chambers with a cardboard bottom. The mice were injected with reserpine subcutaneously at 2 mg./kg. and retained at an ambient temperature of 20° C. for a period of 18 hours. At this point, their rectal temperatures were initially ascertained and immediately thereafter they were divided into groups of 5-20 animals for testing purposes. Each group then received either saline as a control or the compound to be tested at a dose level of 32 mg./kg., administered intraperitoneally, and the resulting rectal temperatures were measured two hours later. In the table below, the entries are reported as mean rectal temperatures for each compound at the 2-hour mark, together with the number of animals tested in each particular group.
# [3] = tested on: spontaneous motor activity in mice; test: Spontaneous motor activity in mice (actophotometer activity counts); assay type: in vivo; conditions: for hyperactive response: same conditions, 0.32, 1.0, 3.2, 10 and 32 mg./kg.
# Protocol: A total of seven mice was employed at each dose level tested (viz., at 0.32, 1.0, 3.2, 10 and 32 mg./kg., i.p., respectively) and these mice were separated one to an activity cage. After an initial one-half hour exposure period (for acclimation purposes), each animal in the cage was treated with a sample of the drug intraperitoneally and immediately thereafter returned to said cage, with activity counts every one-half hour being recorded from that point on.
# [4] = tested on: norepinephrine uptake into both rat heart and rat brain; reserpine hypothermia in mice; test: Antidepressant activity (norepinephrine uptake into rat heart and rat brain in vivo; reversal of reserpine hypothermia in mice); conditions: base and hydrochloride acid addition salts
# Protocol: The activity of the compounds of the present invention as antidepressants is determined by a study of their ability to supress norepinephrine uptake into both rat heart and rat brain (in vivo), together with a determination of their ability to bring about a reversal of reserpine hypothermia in mice.
smiles,measurement,setting,value
"CN[C@H]1CC[C@@H](c2ccccc2)c2ccccc21 (relative stereo) [Cis-isomer of Example IV, cis-dl-N-methyl-4-phenyl-1,2,3,4-tetrahydro-1-naphthylamine hydrochloride]",Sp. Activity of Heart H^3 NE (% Control),[1]; hydrochloride,87 % Control and 104 % Control
same,"Mean Rectal Temperature, Temp. (° C.) ±S.D.",[2],27.0 ± 3.4 °C
"N[C@H]1CC[C@@H](c2ccccc2)c2ccccc21 (relative stereo) [Cis-isomer of Example IX, cis-dl-4-phenyl-1,2,3,4-tetrahydro-1-naphthylamine hydrochloride]",Sp. Activity of Heart H^3 NE (% Control),[1],93 % Control
same,"Mean Rectal Temperature, Temp. (° C.) ±S.D.",[2],30.8 ± 2.6 °C
"CCN[C@H]1CC[C@@H](c2ccccc2)c2ccccc21 (relative stereo) [Cis-isomer of Example V, cis-dl-N-ethyl-4-phenyl-1,2,3,4-tetrahydro-1-naphthylamine hydrochloride]",Sp. Activity of Heart H^3 NE (% Control),[1],144 % Control
same,"Mean Rectal Temperature, Temp. (° C.) ±S.D.",[2],28.0 ± 2.3 °C
"CC(C)N[C@H]1CC[C@@H](c2ccccc2)c2ccccc21 (relative stereo) [Cis-isomer of Example VI, cis-dl-N-isopropyl-4-phenyl-1,2,3,4-tetrahydro-1-naphthylamine hydrochloride]","Mean Rectal Temperature, Temp. (° C.) ±S.D.",[2],27.3 ± 3.6 °C
"c1ccc([C@@H]2CC[C@H](NC3CC3)c3ccccc32)cc1 (relative stereo) [Cis-isomer of Example VII, cis-dl-N-cyclopropyl-4-phenyl-1,2,3,4-tetrahydro-1-naphthylamine hydrochloride]","Mean Rectal Temperature, Temp. (° C.) ±S.D.",[2],25.3 ± 4.4 °C
"CN(C)[C@H]1CC[C@@H](c2ccccc2)c2ccccc21 (relative stereo) [Cis-isomer of Example VIII, cis-dl-N,N-dimethyl-4-phenyl-1,2,3,4-tetrahydro-1-naphthylamine hydrochloride]",Sp. Activity of Heart H^3 NE (% Control),[1],120 % Control
same,"Mean Rectal Temperature, Temp. (° C.) ±S.D.",[2],31.4 ± 2.4 °C
"CN[C@@H]1CC[C@@H](c2ccccc2)c2ccccc21 (relative stereo) [Trans-isomer of Example IV, trans-dl-N-methyl-4-phenyl-1,2,3,4-tetrahydro-1-naphthylamine hydrochloride]",Sp. Activity of Heart H^3 NE (% Control),[1]; hydrochloride,14 % Control and 19 % Control and 21 % Control and 25 % Control
same,"Mean Rectal Temperature, Temp. (° C.) ±S.D.",[2],33.5 ± 1.5 °C
same,time course / duration of effect,[3]; 32 mg./kg. i.p.,especially long-lived
same,potency compared with dextrorotatory isomer,"[3]; i.p., spontaneous motor activity",somewhat less potent than the aforesaid dextrorotatory isomer
"Cl.N[C@@H]1CC[C@@H](c2ccccc2)c2ccccc21 (relative stereo) [Trans-isomer of Example IX, trans-4-phenyl-1,2,3,4-tetrahydro-1-naphthylamine hydrochloride]",Sp. Activity of Heart H^3 NE (% Control),[1]; hydrochloride,60 % Control and 66 % Control
same,"Mean Rectal Temperature, Temp. (° C.) ±S.D.",[2],31.8 ± 2.5 °C
"CCN[C@@H]1CC[C@@H](c2ccccc2)c2ccccc21 (relative stereo) [Trans-isomer of Example V, trans-dl-N-ethyl-4-phenyl-1,2,3,4-tetrahydro-1-naphthylamine hydrochloride]",Sp. Activity of Heart H^3 NE (% Control),[1]; hydrochloride,71 % Control and 75 % Control
same,"Mean Rectal Temperature, Temp. (° C.) ±S.D.",[2],33.5 ± 0.9 °C
"CC(C)N[C@@H]1CC[C@@H](c2ccccc2)c2ccccc21 (relative stereo) [Trans-isomer of Example VI, trans-dl-N-isopropyl-4-phenyl-1,2,3,4-tetrahydro-1-naphthylamine hydrochloride]","Mean Rectal Temperature, Temp. (° C.) ±S.D.",[2],32.6 ± 0.7 °C
"c1ccc([C@@H]2CC[C@@H](NC3CC3)c3ccccc32)cc1 (relative stereo) [Trans-isomer of Example VII, trans-dl-N-cyclopropyl-4-phenyl-1,2,3,4-tetrahydro-1-naphthylamine hydrochloride]","Mean Rectal Temperature, Temp. (° C.) ±S.D.",[2],32.6 ± 0.7 °C
"CN(C)[C@@H]1CC[C@@H](c2ccccc2)c2ccccc21 (relative stereo) [Trans-isomer of Example VIII, trans-dl-N,N-dimethyl-4-phenyl-1,2,3,4-tetrahydro-1-naphthylamine hydrochloride]",Sp. Activity of Heart H^3 NE (% Control),[1],49 % Control
same,"Mean Rectal Temperature, Temp. (° C.) ±S.D.",[2],33.5 ± 1.4 °C
"N[C@@H]1CC[C@@H](c2ccccc2)c2ccccc21 (relative stereo) [trans-dl-4-phenyl-1,2,3,4-tetrahydro-1-naphthylamine]",degree of antidepressant activity,[4],markedly high degree of antidepressant activity
"CN(C)[C@@H]1CC[C@@H](c2ccccc2)c2ccccc21 (relative stereo) [trans-dl-N,N-dimethyl-4-phenyl-1,2,3,4-tetrahydro-1-naphthylamine]",degree of antidepressant activity,[4],markedly high degree of antidepressant activity
"c1ccc([C@@H]2CC[C@@H](NC3CC3)c3ccccc32)cc1 (relative stereo) [trans-dl-N-cyclopropyl-4-phenyl-1,2,3,4-tetrahydro-1-naphthylamine]",degree of antidepressant activity,[4],markedly high degree of antidepressant activity
"CCN[C@@H]1CC[C@@H](c2ccccc2)c2ccccc21 (relative stereo) [trans-dl-N-ethyl-4-phenyl-1,2,3,4-tetrahydro-1-naphthylamine]",degree of antidepressant activity,[4],markedly high degree of antidepressant activity
"CC(C)N[C@@H]1CC[C@@H](c2ccccc2)c2ccccc21 (relative stereo) [trans-dl-N-isopropyl-4-phenyl-1,2,3,4-tetrahydro-1naphthylamine]",degree of antidepressant activity,[4],markedly high degree of antidepressant activity
"CN[C@H]1CC[C@H](c2ccccc2)c2ccccc21 [Trans-l-isomer of Example III, trans-l-N-methyl-4-phenyl-1,2,3,4-tetrahydro-1-naphthylamine hydrochloride]","Mean Rectal Temperature, Temp. (° C.) ±S.D.",[2],27.5 ± 2.9 °C
same,stimulant effect,[3]; 10 and 32 mg./kg. (i.p.),little evidence of a stimulant effect
"CNCCCN1c2ccccc2CCc2ccccc21 [desmethylimipramine, reference compound]",hyperactive response,[3]; i.p.,failed to elicit any hyperactive response whatsoever
"CNCCCC1c2ccccc2C=Cc2ccccc21 [protriptlyine, protriptyline, reference compound]",hyperactive response,[3]; i.p.,failed to elicit any hyperactive response whatsoever
